Key:
[1] = set-up: method as in PMID 15863696; settings: cited from earlier work
HCT-116 = test: MTT cytotoxicity assay, HCT-116; format: cell-based; settings: Homo sapiens, 24 h treatment, mean ± SD of triplicate
Experimental: (§1) Subsequently, 100 µL of dimethyl sulfoxide was introduced to dissolve the insoluble formazan.

[2] = test system: HCT-116, MDA-MB-231, HeLa, and MCF-7; test: MTT cytotoxicity assay, ranges stated over several cell lines; format: cell-based; settings: Homo sapiens, HCT-116, MDA-MB-231, HeLa, MCF-7; range; read-out: IC50 values, range over the cancer cell lines tested
Method in brief: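 Formazan produced from MTT by the cells was taken up in dimethyl sulfoxide for measurement.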

MCF-7 = test: MTT cytotoxicity assay, MCF-7; format: cell-based, human; settings: Homo sapiens, MCF7, 24 h, 24 h treatment, mean ± SD of triplicate
Experimental: as §1

MDA-MB-231 = test: MTT cytotoxicity assay, MDA-MB-231; format: cell-based; settings: Homo sapiens, 24 h treatment, mean ± SD of triplicate
Experimental: as §1

WI-38 = test: MTT cytotoxicity assay, normal cell line WI-38; format: cell-based, human; settings: normal (non-cancer) cell line, 24 h treatment
Experimental: as §1

[3] = MTT cytotoxicity assay, normal cell line WI-38; format: cell-based, human; settings: human, WI-38 cells (normal human lung fibroblasts), normal (non-cancer) cell line, 24 h treatment
Experimental: as §1

HeLa = test: MTT cytotoxicity assay, HeLa; format: cell-based; settings: Homo sapiens, 24 h treatment, mean ± SD of triplicate
Experimental: as §1

SMILES	Concentration at which estrogenic activity is shown [1] [mol]	IC50 (HCT-116) [µM]	IC50 [2] [µM]	IC50 (MCF-7) [µM]	IC50 (MDA-MB-231) [µM]	IC50 (WI-38) [µM]	IC50 at 24 h [3] [µM]	IC50 (HeLa) [µM]
O=C(/C=C/c1ccc(O)cc1)c1ccccc1 [4-hydroxychacone]	0.0001	–	–	–	–	–	–	–
COc1cccc(C(=O)/C=C/c2ccc(OCc3ccccc3)c(OC)c2)c1 [Compound 4u, (E)-3-(4-(Benzyloxy)-3-methoxyphenyl)-1-(3-methoxyphenyl)prop-2-en-1-one]	–	95.3 ± 4.9	55.6 to 82.8	82.8 ± 4.1	> 100	39 ± 2.4	40 to 40.1	> 100
